Data reported in patent publication US20140072662A1, “Andrographis Paniculata Compositions and Methods for Treatment of Addictions” (Omeros Corporation, priority 2012, published 2014).
“Also recorded” adds a separate entry of the source. Where two headings read alike, the source gives them in different places.

Experiments:
[1] = molecular target: T1, GAL-4-PPAR-gamma chimera (Homo sapiens, UniProt P37231); conditions: compounds isolated from EtOH extract of licorice; cited from earlier work
T1 construct: GAL-4 (fusion partner of the chimera)
T1 sequence (P37231 with tags, fused parts or gaps limits assumed): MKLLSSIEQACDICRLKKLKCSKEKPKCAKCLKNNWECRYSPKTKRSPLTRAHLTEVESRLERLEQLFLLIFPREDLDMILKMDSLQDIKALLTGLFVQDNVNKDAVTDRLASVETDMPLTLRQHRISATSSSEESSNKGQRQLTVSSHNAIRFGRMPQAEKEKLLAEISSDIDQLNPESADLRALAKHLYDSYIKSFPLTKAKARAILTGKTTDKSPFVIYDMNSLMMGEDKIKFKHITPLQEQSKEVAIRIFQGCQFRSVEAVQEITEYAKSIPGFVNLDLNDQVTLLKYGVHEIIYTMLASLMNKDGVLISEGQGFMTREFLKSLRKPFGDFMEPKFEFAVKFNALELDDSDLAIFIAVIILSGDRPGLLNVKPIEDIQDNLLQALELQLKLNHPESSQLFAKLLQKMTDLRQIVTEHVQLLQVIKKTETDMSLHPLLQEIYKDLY

[2] = molecular target: T2, PPARγ (Homo sapiens, UniProt P37231); conditions: cited from earlier work
T2 sequence (P37231 1-505): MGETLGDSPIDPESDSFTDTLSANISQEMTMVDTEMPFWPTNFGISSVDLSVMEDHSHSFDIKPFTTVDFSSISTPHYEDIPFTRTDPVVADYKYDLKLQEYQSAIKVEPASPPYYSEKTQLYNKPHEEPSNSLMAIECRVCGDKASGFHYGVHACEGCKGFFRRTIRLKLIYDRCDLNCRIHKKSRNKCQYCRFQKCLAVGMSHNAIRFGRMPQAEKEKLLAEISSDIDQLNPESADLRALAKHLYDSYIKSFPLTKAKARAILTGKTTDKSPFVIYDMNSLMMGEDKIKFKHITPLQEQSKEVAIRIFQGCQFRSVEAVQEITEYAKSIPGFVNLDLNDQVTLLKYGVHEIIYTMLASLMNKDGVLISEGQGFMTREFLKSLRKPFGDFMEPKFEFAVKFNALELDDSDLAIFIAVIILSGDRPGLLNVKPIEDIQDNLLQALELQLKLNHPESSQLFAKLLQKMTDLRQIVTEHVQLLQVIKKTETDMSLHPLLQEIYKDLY

[3] = system: msP rats; test: Central PPAR antagonist GW9662 on andrographolide-induced reduction of alcohol intake in msP rats; assay type: in vivo, rat
Experimental: GW9662, purchased from Tocris (Bristol, UK), was dissolved in 10% DMSO and 3% Tween 80 and the final volume (5 μg/μl) was adjusted adding distilled water. GW9662 was injected ICV in a volume of 1 μl per rat by means of a stainless-steel injector 2.5 mm longer than the guide cannula, so that its tip protruded into the ventricle.
A 22-gauge guide cannula for intracerebroventricular (ICV) drug injections was stereotaxically implanted into the lateral cerebroventricle with the following coordinates: anteroposterior (AP)=1.0; lateral (L)=1.8; ventral (V)=2.0 with reference to bregma.
A widely used method for testing fluid preference is the two-bottle choice paradigm, in which water and 10% (v/v) alcohol solution were offered in graduated drinking tubes equipped with metallic drinking spouts and their consumption was measured by reading the volume consumed from the graduated tubes. Food intake was measured by weighing the food containers and taking into account spillage. Alcohol, water and food intakes are expressed as g/kg to reduce the influence of differences in body weight.
To examine whether the effect of andrographolide on alcohol intake is mediated by brain PPAR receptors, another group of msP rats (N=31) was treated ICV with 5 μg/rat of the PPAR antagonist GW9662 and then injected with andrographolide (10 mg/kg) or its vehicle. In a between-subject design each group of animals (N=7-8/group) received a different drug dose for 6 consecutive days. GW9662 or its vehicle were administered twice daily at 12 hours and 30 minutes before the beginning of the dark period of the light-dark cycle. Andrographolide was given immediately after GW9662 administrations.
Alcohol, water, and food intake was recorded at 0.5, 2, 8 and 24 hours from the moment that alcohol was made available.

[4] = molecular target: T3, PPAR α (Mus musculus, UniProt P23204); conditions: 3T3-L1 cells; cited from earlier work
T3 construct: host or cells: 3T3-L1
T3 sequence (P23204 1-468): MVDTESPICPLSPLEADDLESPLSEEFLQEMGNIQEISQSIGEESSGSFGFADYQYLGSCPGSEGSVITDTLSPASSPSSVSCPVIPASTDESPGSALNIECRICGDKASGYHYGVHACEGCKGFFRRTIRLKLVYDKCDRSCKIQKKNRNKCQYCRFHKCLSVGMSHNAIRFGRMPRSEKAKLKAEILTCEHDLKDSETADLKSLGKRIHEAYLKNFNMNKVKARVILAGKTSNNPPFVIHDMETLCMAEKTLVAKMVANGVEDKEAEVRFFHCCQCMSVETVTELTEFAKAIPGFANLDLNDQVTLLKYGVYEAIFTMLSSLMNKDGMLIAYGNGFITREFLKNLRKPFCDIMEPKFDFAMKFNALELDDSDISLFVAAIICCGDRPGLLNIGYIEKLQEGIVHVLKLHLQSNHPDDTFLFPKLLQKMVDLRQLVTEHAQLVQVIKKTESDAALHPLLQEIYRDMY

[5] = molecular target: T4, PPARγ (Mus musculus, UniProt P37238); conditions: 3T3-L1 cells; cited from earlier work
T4 construct: host or cells: 3T3-L1
T4 sequence (P37238 1-505): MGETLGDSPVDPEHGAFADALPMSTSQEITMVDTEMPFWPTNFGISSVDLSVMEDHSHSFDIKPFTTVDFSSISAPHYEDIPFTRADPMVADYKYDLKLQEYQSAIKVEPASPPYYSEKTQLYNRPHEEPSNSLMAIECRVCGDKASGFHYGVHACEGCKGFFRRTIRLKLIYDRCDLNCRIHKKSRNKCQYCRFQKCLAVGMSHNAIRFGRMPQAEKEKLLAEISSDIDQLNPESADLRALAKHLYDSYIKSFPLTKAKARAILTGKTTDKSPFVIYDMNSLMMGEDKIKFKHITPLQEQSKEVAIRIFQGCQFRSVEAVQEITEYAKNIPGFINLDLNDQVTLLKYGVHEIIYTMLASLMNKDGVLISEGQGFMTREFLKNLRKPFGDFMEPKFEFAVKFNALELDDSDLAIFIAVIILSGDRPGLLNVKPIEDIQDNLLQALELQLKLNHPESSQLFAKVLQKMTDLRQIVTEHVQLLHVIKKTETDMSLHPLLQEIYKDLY

[6] = molecular target: T5, PPAR δ ligand binding domain (Homo sapiens, UniProt Q03181); conditions: cited from earlier work
T5 sequence (Q03181 211-439 limits assumed): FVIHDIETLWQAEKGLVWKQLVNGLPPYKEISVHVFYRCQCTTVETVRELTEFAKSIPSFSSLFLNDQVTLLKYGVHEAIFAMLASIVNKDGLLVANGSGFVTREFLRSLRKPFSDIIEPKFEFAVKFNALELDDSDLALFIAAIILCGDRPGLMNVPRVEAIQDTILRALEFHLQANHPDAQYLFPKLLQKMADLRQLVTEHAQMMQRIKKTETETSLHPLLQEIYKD

[7] = molecular target: PPAR γ ligand binding domain (Homo sapiens, UniProt P37231); conditions: cited from earlier work
[8] = molecular target: T4, PPARγ; conditions: 3T3-L1 preadipocytes; cited from earlier work
[9] = molecular target: T2, PPARγ; conditions: cited from earlier work; remark: listed apart in the source

| Compound | PPAR-gamma ligand-binding activity [1] | also measured |
| --- | --- | --- |
| CC1(C)C=Cc2c(ccc3c2OC[C@@H](c2cc(C=O)c(O)cc2O)C3)O1 [5′-formylglabridin] | significant PPAR-gamma ligand-binding activity | – |
| CC(C)=CCc1cc([C@H]2Oc3cc(O)ccc3C[C@H]2O)ccc1O [(2R,3R)-3,4′,7-trihydroxy-3′-prenylflavane] | significant PPAR-gamma ligand-binding activity | – |
| COc1ccc([C@@H]2COc3cc(O)ccc3C2)c(O)c1O [(3R)-2′,3′,7-trihydroxy-4′-methoxyisoflavan] | significant PPAR-gamma ligand-binding activity | – |
| CC(C)=CCCC(C)CCO (stereo not drawn) [Citronellol, citronellol] | – | activation of PPARγ [2]: activate PPARγ |
| O=C(Nc1ccccc1)c1cc([N+](=O)[O-])ccc1Cl [GW9662] | – | alcohol drinking ([3]; GW9662 5 μg/rat ICV alone, twice daily, 6 days, p>0.05): no similar effect; blockade of the andrographolide effect on alcohol drinking ([3]; GW9662 5 μg/rat ICV given before andrographolide 10 mg/kg): blocked the effect of andrographolide at 8 and 24 hours starting from the third day of treatment; also recorded: completely prevents the andrographolide effect on alcohol drinking |
| CCCC\C=C/C=C/C=C\CCCCCCCC(=O)O [PUA, punicic acid] | – | PPAR α reporter activity [4]: dose-dependent increase; PPAR γ reporter activity [5]: dose-dependent increase; binding to PPAR δ ligand binding domain [6]: bind; binding to PPAR γ ligand binding domain [7]: bind |
| CC1=CC(=O)CC(C)(C)[C@@]1(O)/C=C/C(C)=C\C(=O)O [abscisic acid] | – | activity of PPARγ [8]: increase the activity of PPARγ |
| COc1ccc(-c2coc3cc(O)cc(O)c3c2=O)cc1 [biochanin A] | – | activation of PPARγ [9]: potent activators of PPARγ |
| COc1cc(O)ccc1/C=C/C(=O)c1ccc(O)cc1 [echinatin] | significant PPAR-gamma ligand-binding activity | – |
| CC(C)=CCc1c(O)cc(O)c2c(=O)c(-c3ccc(O)c(O)c3)coc12 [gancaonin L] | significant PPAR-gamma ligand-binding activity | – |
| O=c1c(-c2ccc(O)cc2)coc2cc(O)cc(O)c12 [genistein] | – | activation of PPARγ [9]: potent activators of PPARγ |
| CC(C)=CCC/C(C)=C/CO [geraniol] | – | activation of PPARγ [2]: activate PPARγ |
| CC(C)=CCc1cc([C@@H]2CC(=O)c3ccc(O)c(CC=C(C)C)c3O2)ccc1O [glabrol] | significant PPAR-gamma ligand-binding activity | – |
| CC1(C)C=Cc2c(ccc(-c3coc4cc(O)ccc4c3=O)c2O)O1 [glabrone] | significant PPAR-gamma ligand-binding activity | – |
| CC1(C)C=Cc2c(ccc3cc(-c4ccc(O)cc4O)c(=O)oc23)O1 [kanzonol W] | significant PPAR-gamma ligand-binding activity | – |
| CC(C)=CCc1c(O)ccc([C@@H]2COc3c(ccc(O)c3CC=C(C)C)C2)c1O [kanzonol X] | significant PPAR-gamma ligand-binding activity | – |
| CC(C)=CCC/C(C)=C\CO [nerol] | – | activation of PPARγ [2]: not |
| CC(C)=CCc1cc([C@@H]2CC(=O)c3ccc4c(c3O2)C=CC(C)(C)O4)ccc1O [shinflavanone] | significant PPAR-gamma ligand-binding activity | – |
| CC1(C)C=Cc2c(ccc3c2OC[C@H]2c4ccc(O)cc4O[C@@H]32)O1 [shinpterocarpin] | significant PPAR-gamma ligand-binding activity | – |
| licoflavanone A | significant PPAR-gamma ligand-binding activity | – |
